Test results from article PMC10763615, “Identification and engineering of potent cyclic peptides with selective or promiscuous binding through biochemical profiling and bioinformatic data analysis” (RSC Chemical Biology, 2023).
Where two headings read alike, the source gives them in different places. Positions of bridges follow the written chain, without caps; N, C: chain ends. Residues, ends and D or L forms follow the SMILES beside them.

Experiments:
Format in all cases: binding
FGF-R4 ECD = biological target: T1, FGF-R4 ECD (Homo sapiens, UniProt P22455); test: single concentration BLI of crude peptides; conditions: read-out: KD (4)
T1 construct: DNA constructs for the extracellular domain (ECD) of human FGF-; HPC4 (C); made in house; host or cells: HEK 293-6E
T1 sequence (P22455 22-369 limits assumed): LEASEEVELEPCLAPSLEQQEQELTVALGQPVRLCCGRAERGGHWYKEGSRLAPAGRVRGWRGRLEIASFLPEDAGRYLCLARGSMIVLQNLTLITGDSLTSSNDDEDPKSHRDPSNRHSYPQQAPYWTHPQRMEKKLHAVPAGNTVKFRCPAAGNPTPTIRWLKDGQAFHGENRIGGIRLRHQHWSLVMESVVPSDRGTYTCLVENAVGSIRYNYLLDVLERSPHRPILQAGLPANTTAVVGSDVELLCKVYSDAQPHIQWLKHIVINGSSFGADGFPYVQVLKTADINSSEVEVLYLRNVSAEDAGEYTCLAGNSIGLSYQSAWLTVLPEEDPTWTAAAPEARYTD
How it was run: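 BLI, streptavidin sensors loaded with biotinylated receptor ECD. Single-point: ~1 μM crude peptide, PBS pH7.4/0.05% Tween-20/0.01% BSA; association then dissociation in buffer. KD corrected for UPLC-CAD-determined concentration.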

FGF-R1C ECD = biological target: T2, FGF-R1C ECD (Homo sapiens, UniProt P11362); test: biochemical; set-up: DNA constructs for the extracellular domain (ECD) of human FGF-; HPC4 (C); made in house; host or cells: HEK 293-6E
T2 sequence (P11362 22-376 limits assumed): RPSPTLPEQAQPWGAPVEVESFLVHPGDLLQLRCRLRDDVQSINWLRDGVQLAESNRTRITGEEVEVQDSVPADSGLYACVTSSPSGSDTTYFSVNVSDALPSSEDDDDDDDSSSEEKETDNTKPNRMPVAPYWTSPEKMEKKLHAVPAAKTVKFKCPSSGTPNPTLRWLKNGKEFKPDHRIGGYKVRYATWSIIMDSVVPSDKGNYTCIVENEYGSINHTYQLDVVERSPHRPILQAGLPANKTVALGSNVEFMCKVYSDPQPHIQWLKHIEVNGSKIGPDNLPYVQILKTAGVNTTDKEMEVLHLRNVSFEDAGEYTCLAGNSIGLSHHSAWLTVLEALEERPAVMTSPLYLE
How it was run: (§1)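 Biolayer interferometry with biotinylated FGF-R ECD on streptavidin biosensors in PBS pH 7.4, 0.05% Tween-20, 0.01% BSA. Multi-concentration: purified peptide dilution series fitted to a multi-point KD model.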

FGF-R3C ECD = biological target: T3, FGF-R3C ECD (Homo sapiens, UniProt P22607); test: biochemical; set-up: DNA constructs for the extracellular domain (ECD) of human FGF-; HPC4 (C); made in house; host or cells: HEK 293-6E
T3 sequence (P22607 23-375 limits assumed): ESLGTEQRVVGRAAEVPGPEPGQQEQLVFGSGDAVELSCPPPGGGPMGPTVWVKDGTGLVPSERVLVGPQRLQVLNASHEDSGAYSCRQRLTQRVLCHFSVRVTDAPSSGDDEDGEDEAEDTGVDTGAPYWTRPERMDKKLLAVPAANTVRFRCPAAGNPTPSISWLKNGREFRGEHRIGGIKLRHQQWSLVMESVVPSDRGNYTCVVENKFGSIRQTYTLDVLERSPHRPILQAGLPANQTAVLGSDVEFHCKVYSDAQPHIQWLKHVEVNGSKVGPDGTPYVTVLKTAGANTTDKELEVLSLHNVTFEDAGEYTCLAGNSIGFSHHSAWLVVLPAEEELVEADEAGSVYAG
How it was run: as §1

[1] = crude T18 selection 1 (1:1:1) peptides, single concentration BLI (Table S4)
[2] = crude NNK peptides, single concentration BLI (Table S3)

Compound: CSCC[C@H](NC(C)=O)C(=O)N[C@H]1CSSC[C@@H](C(=O)NCC(=O)N[C@@H](CO)C(=O)NCC(=O)N[C@@H](CO)C(=O)N[C@@H](CC(=O)O)C(=O)N[C@@H](Cc2ccc(O)cc2)C(=O)N[C@@H](CCCCN)C(=O)N[C@@H](CC(=O)O)C(=O)N[C@@H](CC(=O)O)C(=O)N[C@@H](CC(=O)O)C(=O)N[C@@H](CC(=O)O)C(=O)N[C@@H](CCCCN)C(N)=O)NC(=O)[C@H](Cc2ccc(O)cc2)NC(=O)[C@H](Cc2ccccc2)NC(=O)[C@H](Cc2c[nH]c3ccccc23)NC(=O)[C@H](CCCCN)NC(=O)[C@H](Cc2ccc(O)cc2)NC(=O)[C@H](Cc2c[nH]c3ccccc23)NC(=O)[C@H](CCC(N)=O)NC(=O)[C@H](CC(C)C)NC(=O)[C@H]([C@@H](C)O)NC(=O)[C@H](C)NC(=O)[C@H](Cc2ccc(O)cc2)NC(=O)[C@H](CCCCN)NC1=O (Ac-MCKYATLQWYKWFYCGSGSDYKDDDDK-NH2; disulfide 2-15)
- Kd (FGF-R4 ECD; [1]): 63 nM
- Kd (FGF-R1C ECD): 114 nM
- Kd (FGF-R3C ECD): 7340 nM

Compound: CC[C@H](C)[C@@H]1NC(=O)[C@@H](NC(=O)[C@H](CCSC)NC(C)=O)CSSC[C@@H](C(=O)NCC(=O)N[C@@H](CO)C(=O)NCC(=O)N[C@@H](CO)C(=O)N[C@@H](CC(=O)O)C(=O)N[C@@H](Cc2ccc(O)cc2)C(=O)N[C@@H](CCCCN)C(=O)N[C@@H](CC(=O)O)C(=O)N[C@@H](CC(=O)O)C(=O)N[C@@H](CC(=O)O)C(=O)N[C@@H](CC(=O)O)C(=O)N[C@@H](CCCCN)C(N)=O)NC(=O)[C@H](C(C)C)NC(=O)[C@H](C(C)C)NC(=O)[C@H](Cc2c[nH]c3ccccc23)NC(=O)[C@H](Cc2ccccc2)NC(=O)[C@H](CC(=O)O)NC(=O)[C@H](CO)NC(=O)[C@H](CC(C)C)NC(=O)[C@H](CCCNC(=N)N)NC(=O)[C@H](Cc2c[nH]cn2)NC1=O (Ac-MCIHRLSDFWVVCGSGSDYKDDDDK-NH2; disulfide 2-13)
- Kd (FGF-R4 ECD; [2]): 41 nM
- Kd (FGF-R1C ECD): 19 nM
- Kd (FGF-R3C ECD): 49 nM

Compound: CSCC[C@H](NC(C)=O)C(=O)N[C@H]1CSSC[C@@H](C(=O)NCC(=O)N[C@@H](CO)C(=O)NCC(=O)N[C@@H](CO)C(=O)N[C@@H](CC(=O)O)C(=O)N[C@@H](Cc2ccc(O)cc2)C(=O)N[C@@H](CCCCN)C(=O)N[C@@H](CC(=O)O)C(=O)N[C@@H](CC(=O)O)C(=O)N[C@@H](CC(=O)O)C(=O)N[C@@H](CC(=O)O)C(=O)N[C@@H](CCCCN)C(N)=O)NC(=O)[C@H](Cc2ccc(O)cc2)NC(=O)[C@H](Cc2c[nH]c3ccccc23)NC(=O)[C@H](CC(N)=O)NC(=O)[C@H](CCCNC(=N)N)NC(=O)[C@H](CC(=O)O)NC(=O)[C@H](CC(C)C)NC(=O)[C@H](CCCNC(=N)N)NC(=O)[C@H](Cc2ccc(O)cc2)NC(=O)[C@H](CCCCN)NC(=O)[C@H](Cc2c[nH]c3ccccc23)NC(=O)[C@H](C(C)C)NC1=O (Ac-MCVWKYRLDRNWYCGSGSDYKDDDDK-NH2; disulfide 2-14)
- Kd (FGF-R4 ECD; [1]): 2040 nM
- Kd (FGF-R1C ECD): 78 nM
- Kd (FGF-R3C ECD): > 10000 nM

Compound: CC[C@H](C)[C@@H]1NC(=O)[C@@H](NC(=O)[C@H](CCSC)NC(C)=O)CSSC[C@@H](C(=O)NCC(=O)N[C@@H](CO)C(=O)NCC(=O)N[C@@H](CO)C(=O)N[C@@H](CC(=O)O)C(=O)N[C@@H](Cc2ccc(O)cc2)C(=O)N[C@@H](CCCCN)C(=O)N[C@@H](CC(=O)O)C(=O)N[C@@H](CC(=O)O)C(=O)N[C@@H](CC(=O)O)C(=O)N[C@@H](CC(=O)O)C(=O)N[C@@H](CCCCN)C(N)=O)NC(=O)[C@H](C(C)C)NC(=O)[C@H](C)NC(=O)[C@H](Cc2c[nH]c3ccccc23)NC(=O)[C@H](Cc2ccccc2)NC(=O)[C@H](CC(=O)O)NC(=O)[C@H](CO)NC(=O)[C@H](CC(C)C)NC(=O)[C@H](CCCNC(=N)N)NC(=O)[C@H](Cc2ccc(O)cc2)NC1=O (Ac-MCIYRLSDFWAVCGSGSDYKDDDDK-NH2; disulfide 2-13)
- Kd (FGF-R4 ECD; [2]): 133 nM
- Kd (FGF-R1C ECD): 21 nM
- Kd (FGF-R3C ECD): 49 nM

Compound: CC[C@H](C)[C@@H]1NC(=O)[C@H](CO)NC(=O)[C@H](Cc2ccccc2)NC(=O)[C@H](Cc2c[nH]cn2)NC(=O)CNC(=O)[C@@H](NC(=O)[C@H](CCSC)NC(C)=O)CSSC[C@@H](C(=O)NCC(=O)N[C@@H](CO)C(=O)NCC(=O)N[C@@H](CO)C(=O)N[C@@H](CC(=O)O)C(=O)N[C@@H](Cc2ccc(O)cc2)C(=O)N[C@@H](CCCCN)C(=O)N[C@@H](CC(=O)O)C(=O)N[C@@H](CC(=O)O)C(=O)N[C@@H](CC(=O)O)C(=O)N[C@@H](CC(=O)O)C(=O)N[C@@H](CCCCN)C(N)=O)NC(=O)[C@H](Cc2c[nH]c3ccccc23)NC(=O)[C@H](CCCCN)NC(=O)[C@H](Cc2ccccc2)NC(=O)[C@H](Cc2c[nH]c3ccccc23)NC(=O)[C@H]([C@@H](C)O)NC1=O (Ac-MCGHFSITWFKWCGSGSDYKDDDDK-NH2; disulfide 2-13)
- Kd (FGF-R4 ECD; [2]): > 10000 nM
- Kd (FGF-R1C ECD): > 10000 nM
- Kd (FGF-R3C ECD): > 10000 nM

Compound: CC[C@H](C)[C@@H]1NC(=O)[C@H](CCCCN)NC(=O)[C@@H](NC(=O)[C@H](CCSC)NC(C)=O)CSSC[C@@H](C(=O)NCC(=O)N[C@@H](CO)C(=O)NCC(=O)N[C@@H](CO)C(=O)N[C@@H](CC(=O)O)C(=O)N[C@@H](Cc2ccc(O)cc2)C(=O)N[C@@H](CCCCN)C(=O)N[C@@H](CC(=O)O)C(=O)N[C@@H](CC(=O)O)C(=O)N[C@@H](CC(=O)O)C(=O)N[C@@H](CC(=O)O)C(=O)N[C@@H](CCCCN)C(N)=O)NC(=O)[C@H](C(C)C)NC(=O)[C@H](Cc2c[nH]c3ccccc23)NC(=O)[C@H](Cc2c[nH]c3ccccc23)NC(=O)[C@H](Cc2ccccc2)NC(=O)[C@H](CCCCN)NC(=O)[C@H](Cc2c[nH]cn2)NC(=O)[C@H](CC(=O)O)NC(=O)[C@H](C(C)C)NC(=O)[C@H](Cc2ccc(O)cc2)NC(=O)[C@H](Cc2c[nH]c3ccccc23)NC1=O (Ac-MCKIWYVDHKFWWVCGSGSDYKDDDDK-NH2; disulfide 2-15)
- Kd (FGF-R4 ECD; [1]): 2 nM
- Kd (FGF-R1C ECD): > 10000 nM
- Kd (FGF-R3C ECD): > 10000 nM

Compound: CSCC[C@H](NC(C)=O)C(=O)N[C@H]1CSSC[C@@H](C(=O)NCC(=O)N[C@@H](CO)C(=O)NCC(=O)N[C@@H](CO)C(=O)N[C@@H](CC(=O)O)C(=O)N[C@@H](Cc2ccc(O)cc2)C(=O)N[C@@H](CCCCN)C(=O)N[C@@H](CC(=O)O)C(=O)N[C@@H](CC(=O)O)C(=O)N[C@@H](CC(=O)O)C(=O)N[C@@H](CC(=O)O)C(=O)N[C@@H](CCCCN)C(N)=O)NC(=O)[C@H](CCCCN)NC(=O)[C@H](CC(C)C)NC(=O)[C@H](C(C)C)NC(=O)[C@H](CC(C)C)NC(=O)[C@H](CCC(=O)O)NC(=O)[C@@H]2CCCN2C(=O)[C@H](CCSC)NC(=O)[C@H](Cc2ccccc2)NC(=O)[C@H](Cc2c[nH]c3ccccc23)NC(=O)[C@H](Cc2c[nH]c3ccccc23)NC1=O (Ac-MCWWFMPELVLKCGSGSDYKDDDDK-NH2; disulfide 2-13)
- Kd (FGF-R4 ECD; [2]): > 10000 nM
- Kd (FGF-R1C ECD): > 10000 nM
- Kd (FGF-R3C ECD): > 10000 nM

Compound: CC[C@H](C)[C@@H]1NC(=O)[C@H](CCCCN)NC(=O)[C@H](Cc2ccccc2)NC(=O)[C@H](Cc2ccccc2)NC(=O)[C@H](Cc2c[nH]cn2)NC(=O)[C@H]([C@@H](C)CC)NC(=O)[C@@H]2CCCN2C(=O)[C@@H](NC(=O)[C@H](CCSC)NC(C)=O)CSSC[C@@H](C(=O)NCC(=O)N[C@@H](CO)C(=O)NCC(=O)N[C@@H](CO)C(=O)N[C@@H](CCC(=O)O)C(=O)N[C@@H](CCC(=O)O)C(=O)NCC(=O)N[C@@H](CO)C(=O)NCC(=O)N[C@@H](CO)C(=O)N[C@@H](CC(=O)O)C(=O)N[C@@H](Cc2ccc(O)cc2)C(=O)N[C@@H](CCCCN)C(=O)N[C@@H](CC(=O)O)C(=O)N[C@@H](CC(=O)O)C(=O)N[C@@H](CC(=O)O)C(=O)N[C@@H](CC(=O)O)C(=O)N[C@@H](CCCCN)C(N)=O)NC(=O)[C@H](Cc2c[nH]cn2)NC(=O)[C@H](CCCNC(=N)N)NC(=O)[C@H](Cc2ccc(O)cc2)NC(=O)[C@H](C(C)C)NC1=O (Ac-MCPIHFFKIVYRHCGSGSEEGSGSDYKDDDDK-NH2; disulfide 2-14)
- Kd (FGF-R4 ECD; [1]): 10 nM
- Kd (FGF-R1C ECD): 10 nM
- Kd (FGF-R3C ECD): > 10000 nM
